Results from US20250019376A1, “CHROMANE AMIDINE MONOBACTAM ANTIBIOTICS” (priority 2021, published 2025).

Experiments:
Conditions in all cases: lowest concentration inhibiting 95% of growth (OD600); with BLi relebactam 4 μg/mL; 22 hours, 35±2° C.
[1] = tested on: Pseudomonas aeruginosa expressing AmpC (CL5701); test: Growth inhibitory concentration (OD600), P. aeruginosa CL5701; format: cell-based
Method: (§1) The concentrations of compounds required to inhibit the growth of various strains of bacteria were determined in an assay that assessed bacterial growth by measuring optical density at 600 nm (OD600). The bacterial strains tested included the clinical strains Escherichia co/i expressing NDM-1 (CLB30016), Klebsiella pneumoniae expressing KPC-1 (CL6569), Acinetobacter baumannii expressing TEM-1, AmpC, and Oxa-24/40 (CL6188) and Pseudomonas aeruginosa expressing AmpC (CL5701). All compounds were tested in the presence of a f3 lactamase inhibitor (BLi, Relebactam) in 384-well microplates.
(§2) The clinical strains were stored as frozen single use stocks, thawed and diluted into 1.1× cation-adjusted Mueller-Hinton 11 broth to achieve approximately 2×10^5 CFU/mL. Test compounds were dissolved in DMSO and diluted 1:50 in the assay, resulting in a final concentration range of 100 μM to 0.098 μM. On the day of the assay, 1 μL of test compound was added to the plate followed by 4 μL of 50 μg/mL BLi in MOPS buffer and 45 μL of diluted bacteria. Plates were centrifuged at 1000 rpm for 30 seconds, shaken at approximately 800 rpm for 1 minute, and incubated at 35±2° C. for 22 hours. The concentration of BLi used in the assay was 4 μg/mL. At the end of the incubation, absorbance at 600 nm was determined using a spectrophotometer. Inhibition was quantitated by identifying the lowest concentration of test compound that was required to inhibit […] of the growth of the bacteria.

[2] = tested on: Klebsiella pneumoniae expressing KPC-1 (CL6569); test: Growth inhibitory concentration (OD600), K. pneumoniae CL6569; format: cell-based
Method: as §1, §2

[3] = tested on: Escherichia co/i expressing NDM-1 (CLB30016); test: Growth inhibitory concentration (OD600), E. coli CLB30016; format: cell-based, Escherichia coli
Method: as §1, §2

[4] = tested on: Acinetobacter baumannii expressing TEM-1, AmpC, and Oxa-24/40 (CL6188); format: cell-based
Method: as §1, §2

Compound | PA_CL5701 MITC95 [1] [µM] | KP_CL6569 MITC95 [2] [µM] | EC_CLB30016 MITC95 [3] [µM] | AB_CL6188 MITC95 [4] [µM]
CC1(C)[C@H](NC(=O)/C(=N\O[C@](C)(C(=O)O)[C@H]2CCc3cc(C(=N)N[C@H]4CC[C@H](N)CC4)ccc3O2)c2csc(N)n2)C(=O)N1OS(=O)(=O)O [Compound 32, (S)-2-((R)-6-(N-((1r,4R)-4-aminocyclohexyl)carbamimidoyl)chroman-2-yl)-2-((((Z)-1-(2-aminothiazol-4-yl)-2-(((S)-2,2-dimethyl-4-oxo-1-(sulfooxy)azetidin-3-yl)amino)-2-oxoethylidene)amino)oxy)propanoic acid] | 1.563 | 0.3906 | 3.125 | 3.125
CC1(C)[C@H](NC(=O)/C(=N\O[C@](C)(C(=O)O)[C@H]2CCc3cc(C(=N)N[C@H]4C[C@@](N)(C(O)CO)C4)ccc3O2)c2csc(N)n2)C(=O)N1OS(=O)(=O)O (stereo partly drawn) [Compound 99, (S)-2-((R)-6-(N-((1R,3R)-3-amino-3-((R)-1,2-dihydroxyethyl)cyclobutyl)carbamimidoyl)chroman-2-yl)-2-((((Z)-1-(2-aminothiazol-4-yl)-2-(((S)-2,2-dimethyl-4-oxo-1-(sulfooxy)azetidin-3-yl)amino)-2-oxoethylidene)amino)oxy)propanoic acid] | 3.125 | 0.7813 | 6.25 | 12.5
CC1(C)[C@H](NC(=O)/C(=N\O[C@](C)(C(=O)O)[C@H]2CCc3cc(C(=N)N[C@H]4C[C@](N)(C(O)CO)C4)ccc3O2)c2csc(N)n2)C(=O)N1OS(=O)(=O)O (stereo partly drawn) [Compound 100, (S)-2-((R)-6-(N-((1S,3S)-3-amino-3-((R)-1,2-dihydroxyethyl)cyclobutyl)carbamimidoyl)chroman-2-yl)-2-((((Z)-1-(2-aminothiazol-4-yl)-2-(((S)-2,2-dimethyl-4-oxo-1-(sulfooxy)azetidin-3-yl)amino)-2-oxoethylidene)amino)-oxy)propanoic acid] | 1.563 | 0.7813 | 6.25 | 6.25
CC1(C)[C@H](NC(=O)/C(=N\O[C@](C)(C(=O)O)[C@H]2CCc3cc(C(=N)NC4CCC(N)(CO)CC4)ccc3O2)c2csc(N)n2)C(=O)N1OS(=O)(=O)O (stereo partly drawn) [Compound 69, (S)-2-((R)-6-(N-((1r,4R)-4-amino-4-(hydroxymethyl)cyclohexyl)carbamimidoyl)chroman-2-yl)-2-((((Z)-1-(2-aminothiazol-4-yl)-2-(((S)-2,2-dimethyl-4-oxo-1-(sulfooxy)azetidin-3-yl)amino)-2-oxoethylidene)amino)oxy)propanoic acid] | 1.563 | 0.3906 | 6.25 | 4.688
CC1(C)[C@H](NC(=O)/C(=N\O[C@](C)(C(=O)O)[C@H]2CCc3cc(C(=N)N[C@H]4C[C@]5(CCNC5)C4)ccc3O2)c2csc(N)n2)C(=O)N1OS(=O)(=O)O [Compound 22, (S)-2-((R)-6-(N-((2r,4S)-6-azaspiro[3.4]octan-2-yl)carbamimidoyl)chroman-2-yl)-2-((((Z)-1-(2-aminothiazol-4-yl)-2-(((S)-2,2-dimethyl-4-oxo-1-(sulfooxy)azetidin-3-yl)amino)-2-oxoethylidene)amino)oxy)propanoic acid] | 1.563 | 0.3906 | 3.125 | 3.125
CC1(C)[C@H](NC(=O)/C(=N\O[C@](C)(C(=O)O)[C@H]2CCc3cc(C(=N)N[C@H]4C[C@](N)(CCO)C4)ccc3O2)c2csc(N)n2)C(=O)N1OS(=O)(=O)O [Compound 86, (S)-2-((R)-6-(N-((1s,3S)-3-amino-3-(2-hydroxyethyl)cyclobutyl)carbamimidoyl)chroman-2-yl)-2-((((Z)-1-(2-aminothiazol-4-yl)-2-(((S)-2,2-dimethyl-4-oxo-1-(sulfooxy)azetidin-3-yl)amino)-2-oxoethylidene)amino)oxy)propanoic acid] | 1.563 | 0.3906 | 6.25 | 6.25
CC1(C)[C@H](NC(=O)/C(=N\O[C@](C)(C(=O)O)[C@H]2CCc3cc(C(=N)N[C@]4(C)CC[C@@H](N)CC4)ccc3O2)c2csc(N)n2)C(=O)N1OS(=O)(=O)O [Compound 71, (S)-2-((R)-6-(N-((1r,4R)-4-amino-1-methylcyclohexyl)carbamimidoyl)chroman-2-yl)-2-((((Z)-1-(2-aminothiazol-4-yl)-2-(((S)-2,2-dimethyl-4-oxo-1-(sulfooxy)azetidin-3-yl)amino)-2-oxoethylidene)amino)oxy)propanoic acid] | 1.563 | 0.7813 | 9.375 | 4.688
CC1(C)[C@H](NC(=O)/C(=N\O[C@](C)(C(=O)O)[C@H]2CCc3cc(C(=N)N[C@H]4C[C@@](N)(CCO)C4)ccc3O2)c2csc(N)n2)C(=O)N1OS(=O)(=O)O [Compound 87, (S)-2-((R)-6-(N-((1r,3R)-3-amino-3-(2-hydroxyethyl)cyclobutyl)carbamimidoyl)chroman-2-yl)-2-((((Z)-1-(2-aminothiazol-4-yl)-2-(((S)-2,2-dimethyl-4-oxo-1-(sulfooxy)azetidin-3-yl)amino)-2-oxoethylidene)amino)oxy)propanoic acid] | 1.563 | 0.3906 | 6.25 | 4.688
COCC[C@]1(N)CC[C@@H](NC(=N)c2ccc3c(c2)CC[C@H]([C@](C)(O/N=C(\C(=O)N[C@@H]2C(=O)N(OS(=O)(=O)O)C2(C)C)c2csc(N)n2)C(=O)O)O3)CC1 [Compound 63, (S)-2-((R)-6-(N-((1s,4S)-4-amino-4-(2-methoxyethyl)cyclohexyl)carbamimidoyl)chroman-2-yl)-2-((((Z)-1-(2-aminothiazol-4-yl)-2-(((S)-2,2-dimethyl-4-oxo-1-(sulfooxy)azetidin-3-yl)amino)-2-oxoethylidene)amino)oxy)propanoic acid] | 3.125 | 0.7813 | 12.5 | 6.25
CC1(C)[C@H](NC(=O)/C(=N\O[C@](C)(C(=O)O)[C@H]2CCc3cc(C(=N)N[C@H]4CC[C@](O)(CN)CC4)ccc3O2)c2csc(N)n2)C(=O)N1OS(=O)(=O)O [Compound 59, (S)-2-((R)-6-(N-((1s,4S)-4-(aminomethyl)-4-hydroxycyclohexyl)carbamimidoyl)chroman-2-yl)-2-((((Z)-1-(2-aminothiazol-4-yl)-2-(((S)-2,2-dimethyl-4-oxo-1-(sulfooxy)azetidin-3-yl)amino)-2-oxoethylidene)amino)oxy)propanoic acid] | 1.563 | 0.3906 | 12.5 | 3.125
